{
  "source": "patent US8802663B2",
  "about": "“Pyrazole oxadiazole derivatives as S1P1 agonists” (Merck Serono SA, priority 2009, dated 2014)",
  "note": "Structures can show the parent of a compound that is named as a salt.",
  "data": [
    {"target": "S1P1 (Homo sapiens (Human), UniProt P21453)", "sequence (P21453 whole entry, species assumed)": "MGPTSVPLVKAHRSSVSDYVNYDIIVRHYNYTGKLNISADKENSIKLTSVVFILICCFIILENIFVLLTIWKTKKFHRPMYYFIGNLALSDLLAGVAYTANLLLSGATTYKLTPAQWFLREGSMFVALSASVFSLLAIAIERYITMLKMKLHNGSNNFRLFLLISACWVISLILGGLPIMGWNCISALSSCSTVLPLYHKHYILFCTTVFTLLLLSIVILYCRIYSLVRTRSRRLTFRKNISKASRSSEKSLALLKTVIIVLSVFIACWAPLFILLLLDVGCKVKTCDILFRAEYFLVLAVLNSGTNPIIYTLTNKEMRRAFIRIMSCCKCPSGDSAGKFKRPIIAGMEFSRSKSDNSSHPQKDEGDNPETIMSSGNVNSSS", "experiment": "35S-GTPγS binding, membranes from CHO cells expressing S1P1", "format": "biochemical", "settings": "CHO cell membranes", "method": "Cells were suspended in 50 mM TRIS, pH 7.4, 2 mM EDTA, 250 mM Sucrose (buffer A) and 1× Complete protease inhibitor cocktail (Roche), and disrupted at 4° C. by N2 decompression using a cell disruption bomb (Parr Instrument). Following centrifugation at 1000 RPM for 10 min at 4° C., the supernatant was suspended in buffer A and centrifuged again at 19000 RPM for 60 min at 4° C. The pellet was then suspended in 10 mM HEPES, pH 7.4, 1 mM EDTA, 250 mM Sucrose (Buffer B), and 1× Complete EDTA-free protease inhibitor cocktail and homogenized using a potter. Membranes were flash frozen in liquid N2 and stored at −80° C. [33P]sphingosine 1-phosphate (3000 Ci/mmol; American Radiolabeled Chemicals, Inc.) was added to test compounds in DMSO. […] Specific binding was calculated by subtracting remaining radioactivity in the presence of 1000-fold excess of unlabeled SIP. Binding data were analyzed using the GraphPad Prism program.\nAfter 60 min incubation at 30° C. on a shaker, plates were centrifuged for 10 min at 2000 RPM. […] Triplicate samples were averaged and expressed as % response relative to S1P activation in absence of compound (n=2).", "units": {"EC50": "µM"}, "values": [
      {"smiles": "CS(=O)(=O)c1cccc(-c2nc(-c3cnn(C4CCCCC4)c3-c3ccccc3)no2)c1", "note": "[Example 58, 3-(1-cyclohexyl-5-phenyl-1H-pyrazol-4-yl)-5-[3-(methylsulfonyl)phenyl]-1,2,4-oxadiazole]", "EC50": 0.157},
      {"smiles": "FC(F)(F)c1cccc(-c2nc(-c3cnn(C4CCCCC4)c3-c3ccccc3)no2)c1", "note": "[Example 59, 3-(1-cyclohexyl-5-phenyl-1H-pyrazol-4-yl)-5-[3-(trifluoromethyl)phenyl]-1,2,4-oxadiazole]", "EC50": 0.335},
      {"smiles": "Cc1c(-c2nc(-c3cc(F)ccc3F)no2)cnn1-c1ccccc1F", "note": "[Example 60, 3-(2,5-difluorophenyl)-5-[1-(2-fluorophenyl)-5-methyl-1H-pyrazol-4-yl]-1,2,4-oxadiazole]", "EC50": 0.32},
      {"smiles": "CN(CC(=O)O)Cc1ccc(-c2noc(-c3cnn(C4CCCCC4)c3-c3ccncc3)n2)cc1", "note": "[Example 61, N-{4-[5-(1-cyclohexyl-5-pyridin-4-yl-1H-pyrazol-4-yl)-1,2,4-oxadiazol-3-yl]benzyl}-N-methylglycine]", "EC50": 0.022},
      {"smiles": "OC1CN(Cc2ccc(-c3noc(-c4cnn(C5CCCCC5)c4-c4ccncc4)n3)cc2)C1", "note": "[Example 62, 1-{4-[5-(1-cyclohexyl-5-pyridin-4-yl-1H-pyrazol-4-yl)-1,2,4-oxadiazol-3-yl]benzyl}azetidin-3-ol]", "EC50": 0.003},
      {"smiles": "CC(C)Cn1ncc(-c2nc(-c3ccc(CO)cc3)no2)c1C1CCOCC1", "note": "[Example 63]", "EC50": 0.428},
      {"smiles": "COCc1c(-c2nc(-c3ccc(CN4CCC(C(=O)O)CC4)cc3)no2)cnn1C1CCCCC1", "note": "[Example 64, 1-(4-{5-[1-cyclohexyl-5-(methoxymethyl)-1H-pyrazol-4-yl]-1,2,4-oxadiazol-3-yl}benzyl)piperidine-4-carboxylic acid]", "EC50": 0.099},
      {"smiles": "O=C(O)CCNCc1ccc(-c2noc(-c3cnn(C4CCCCC4)c3-c3ccncc3)n2)cc1", "note": "[Example 65, N-{4-[5-(1-cyclohexyl-5-pyridin-4-yl-1H-pyrazol-4-yl)-1,2,4-oxadiazol-3-yl]benzyl}-beta-alanine]", "EC50": 0.001},
      {"smiles": "c1cc(-c2c(-c3nc(-c4ccc(CN5CCC5)cc4)no3)cnn2C2CCCCC2)ccn1", "note": "[Example 66, 4-(4-{3-[4-(azetidin-1-ylmethyl)phenyl]-1,2,4-oxadiazol-5-yl}-1-cyclohexyl-1H-pyrazol-5-yl)pyridine]", "EC50": 0.013},
      {"smiles": "COCc1c(-c2nc(-c3ccc(CNCCC(=O)O)cc3)no2)cnn1C1CCCCC1", "note": "[Example 67, N-(4-{5-[1-cyclohexyl-5-(methoxymethyl)-1H-pyrazol-4-yl]-1,2,4-oxadiazol-3-yl}benzyl)-beta-alanine]", "EC50": 0.0014},
      {"smiles": "COCc1c(-c2nc(-c3ccc(CN4CC(C(=O)O)C4)cc3)no2)cnn1C1CCCCC1", "note": "[Example 68, 1-(4-{5-[1-cyclohexyl-5-(methoxymethyl)-1H-pyrazol-4-yl]-1,2,4-oxadiazol-3-yl}benzyl)azetidine-3-carboxylic acid]", "EC50": 0.0003},
      {"smiles": "COCc1c(-c2nc(-c3ccc(CO)cc3)no2)cnn1CC(C)C", "note": "[Example 69, (4-{5-[1-isobutyl-5-(methoxymethyl)-1H-pyrazol-4-yl]-1,2,4-oxadiazol-3-yl}phenyl)methanol]", "EC50": 0.437},
      {"smiles": "OCc1ccc(-c2noc(-c3cnn(C4CCCCC4)c3C3CCOCC3)n2)cc1", "note": "[Example 70, (4-{5-[1-cyclohexyl-5-(tetrahydro-2H-pyran-4-yl)-1H-pyrazol-4-yl]-1,2,4-oxadiazol-3-yl}phenyl)methanol]", "EC50": 0.082},
      {"smiles": "O=C(O)C1CCN(Cc2ccc(-c3noc(-c4cnn(C5CCCCC5)c4-c4ccncc4)n3)cc2)CC1", "note": "[Example 71, 1-{4-[5-(1-cyclohexyl-5-pyridin-4-yl-1H-pyrazol-4-yl)-1,2,4-oxadiazol-3-yl]benzyl}piperidine-4-carboxylic acid]", "EC50": 0.006},
      {"smiles": "COCc1c(-c2nc(-c3ccc(CN(C)CC(=O)O)cc3)no2)cnn1C1CCCCC1", "note": "[Example 72, N-(4-{5-[1-cyclohexyl-5-(methoxymethyl)-1H-pyrazol-4-yl]-1,2,4-oxadiazol-3-yl}benzyl)-N-methylglycine]", "EC50": 0.119},
      {"smiles": "COCc1c(-c2nc(-c3ccc(CN4CC(O)C4)cc3)no2)cnn1C1CCCCC1", "note": "[Example 73, 1-(4-{5-[1-cyclohexyl-5-(methoxymethyl)-1H-pyrazol-4-yl]-1,2,4-oxadiazol-3-yl}benzyl)azetidin-3-ol]", "EC50": 0.03},
      {"smiles": "COCc1c(-c2nc(-c3ccc(CN4CCC(O)C4)cc3)no2)cnn1C1CCCCC1", "note": "(centres unmarked) [Example 74, 1-(4-{5-[1-cyclohexyl-5-(methoxymethyl)-1H-pyrazol-4-yl]-1,2,4-oxadiazol-3-yl}benzyl)pyrrolidin-3-ol]", "EC50": 0.086},
      {"smiles": "COCc1c(-c2nc(-c3ccc(CN(C)C)cc3)no2)cnn1C1CCCCC1", "note": "[Example 75, 1-(4-{5-[1-cyclohexyl-5-(methoxymethyl)-1H-pyrazol-4-yl]-1,2,4-oxadiazol-3-yl}phenyl)-N,N-dimethylmethanamine]", "EC50": 0.063},
      {"smiles": "COCc1c(-c2nc(-c3ccc(CN4CC(C(=O)O)C4)cc3)no2)cnn1CC(C)C", "note": "[Example 76, 1-(4-{5-[1-isobutyl-5-(methoxymethyl)-1H-pyrazol-4-yl]-1,2,4-oxadiazol-3-yl}benzyl)azetidine-3-carboxylic acid]", "EC50": 0.023},
      {"smiles": "CC(C)Cn1ncc(-c2nc(-c3ccc(CN(C)CC(=O)O)cc3)no2)c1-c1ccncc1", "note": "[Example 77, N-{4-[5-(1-isobutyl-5-pyridin-4-yl-1H-pyrazol-4-yl)-1,2,4-oxadiazol-3-yl]benzyl}-N-methylglycine]", "EC50": 0.837},
      {"smiles": "COCCNCc1ccc(-c2noc(-c3cnn(C4CCCCC4)c3-c3ccncc3)n2)cc1", "note": "[Example 78, N-(4-(5-(1-cyclohexyl-5-(pyridin-4-yl)-1H-pyrazol-4-yl)-1,2,4-oxadiazol-3-yl)benzyl)-2-methoxyethanamine]", "EC50": 0.067},
      {"smiles": "CC(C)Cn1ncc(-c2nc(-c3ccc(CN4CCC(O)C4)cc3)no2)c1-c1ccncc1", "note": "(centres unmarked) [Example 80, 1-(4-(5-(1-isobutyl-5-(pyridin-4-yl)-1H-pyrazol-4-yl)-1,2,4-oxadiazol-3-yl)benzyl)pyrrolidin-3-ol, formate]", "EC50": 0.252},
      {"smiles": "CC(C)Cn1ncc(-c2nc(-c3ccc(CN(C)C)cc3)no2)c1-c1ccncc1", "note": "[Example 81, 1-(4-(5-(1-isobutyl-5-(pyridin-4-yl)-1H-pyrazol-4-yl)-1,2,4-oxadiazol-3-yl)phenyl)-N,N-dimethylmethanamine, formate]", "EC50": 0.195},
      {"smiles": "CC(C)Cn1ncc(-c2nc(-c3ccc(CN4CC(O)C4)cc3)no2)c1-c1ccncc1", "note": "[Example 82, 1-(4-(5-(1-isobutyl-5-(pyridin-4-yl)-1H-pyrazol-4-yl)-1,2,4-oxadiazol-3-yl)benzyl)azetidin-3-ol, formate]", "EC50": 0.156},
      {"smiles": "Cc1nn(C2CCCCC2)cc1-c1nc(-c2cc(F)ccc2F)no1", "note": "[Example 83, 5-(1-cyclohexyl-3-methyl-1H-pyrazol-4-yl)-3-(2,5-difluorophenyl)-1,2,4-oxadiazole]", "EC50": 0.313},
      {"smiles": "COCc1c(-c2nc(-c3ccc(CNCCC(=O)O)cc3)no2)cnn1CC(C)C", "note": "[Example 84, 3-(4-(5-(1-isobutyl-5-(methoxymethyl)-1H-pyrazol-4-yl)-1,2,4-oxadiazol-3-yl)benzylamino)propanoic acid]", "EC50": 0.288},
      {"smiles": "CNCc1ccc(-c2noc(-c3cnn(CC(C)C)c3-c3ccncc3)n2)cc1", "note": "[Example 85, 1-(4-(5-(1-isobutyl-5-(pyridin-4-yl)-1H-pyrazol-4-yl)-1,2,4-oxadiazol-3-yl)phenyl)-N-methylmethanamine]", "EC50": 0.179},
      {"smiles": "Cc1c(-c2nc(-c3cc(F)ccc3F)no2)cnn1C1CCCCC1", "note": "[Example 86, 5-(1-cyclohexyl-5-methyl-1H-pyrazol-4-yl)-3-(2,5-difluorophenyl)-1,2,4-oxadiazole]", "EC50": 0.306},
      {"smiles": "FC(F)(F)c1cccc(-c2noc(-c3cnn(C4CCCCC4)c3C3CCOCC3)n2)c1", "note": "[Example 87, 5-(1-cyclohexyl-5-(tetrahydro-2H-pyran-4-yl)-1H-pyrazol-4-yl)-3-(3-(trifluoromethyl)phenyl)-1,2,4-oxadiazole]", "EC50": 0.361},
      {"smiles": "CNCc1ccc(-c2noc(-c3cnn(C4CCCCC4)c3C3CCOCC3)n2)cc1", "note": "[Example 88, 1-(4-(5-(1-cyclohexyl-5-(tetrahydro-2H-pyran-4-yl)-1H-pyrazol-4-yl)-1,2,4-oxadiazol-3-yl)phenyl)-N-methylmethanamine]", "EC50": 0.047},
      {"smiles": "CC(C)(C)Cn1ncc(-c2nc(-c3cccc(C(F)(F)F)c3)no2)c1-c1ccncc1", "note": "[Example 90, 5-(1-neopentyl-5-(pyridin-4-yl)-1H-pyrazol-4-yl)-3-(3-(trifluoromethyl)phenyl)-1,2,4-oxadiazole]", "EC50": 0.035},
      {"smiles": "Brc1ccc(-c2noc(-c3cnn(C4CCCCC4)c3-c3ccncc3)n2)cc1", "note": "[Example 92, 3-(4-bromophenyl)-5-(1-cyclohexyl-5-(pyridin-4-yl)-1H-pyrazol-4-yl)-1,2,4-oxadiazole]", "EC50": 0.158},
      {"smiles": "CC(C)(C)Cn1ncc(-c2nc(-c3cc(F)ccc3F)no2)c1-c1ccncc1", "note": "[Example 93, 3-(2,5-difluorophenyl)-5-(1-neopentyl-5-(pyridin-4-yl)-1H-pyrazol-4-yl)-1,2,4-oxadiazole]", "EC50": 0.301},
      {"smiles": "OCc1ccc(-c2noc(-c3cnn(CC4CC4)c3-c3ccncc3)n2)cc1", "note": "[Example 94, (4-(5-(1-(cyclopropylmethyl)-5-(pyridin-4-yl)-1H-pyrazol-4-yl)-1,2,4-oxadiazol-3-yl)phenyl)methanol]", "EC50": 0.387},
      {"smiles": "c1cc(-c2c(-c3nc(-c4ccc5nccn5c4)no3)cnn2C2CCCCC2)ccn1", "note": "[Example 95, 5-(1-cyclohexyl-5-(pyridin-4-yl)-1H-pyrazol-4-yl)-3-(imidazo[1,2-a]pyridin-6-yl)-1,2,4-oxadiazole]", "EC50": 0.096}
    ]}
  ]
}
